Experimental data as given in patent publication US10399971B2, “Compound for treating or preventing hyperuricemia or gout” (JIANGSU ATOM BIOSCIENCE AND PHARMACEUTICAL CO., LTD., priority 2015, dated 2019).

Key:
[1] = tested on: human normal liver cell line L-02; assay: Cytotoxicity test on human normal liver cell line L-02 (Alamar Blue); format: cell-based; settings: L02, L-02 cells, 120 h incubation, cell viability, read-out: half inhibitory concentration (IC50) against L-02
Description: (§1) 2.1 The normal liver cell lines L-02 and WRL-68 were cultured with DMEM culture medium (containing 10% of fetal bovine serum, 100 U/mL of penicillin and 0.1 mg/mL of streptomycin) in an incubator under 5% CO2 at 37° C. until the cell density was about 90%, respectively.
(§2) 2.3 Tested compounds and benzbromarone at different concentration gradients were prepared by using the DMEM culture medium and added into wells at 100 μL/well as compounds wells. The DMEM culture medium was added into wells at 100 μL/well without tested compound as negative control wells.
(§3) This 10× Alamar Blue solution was diluted into 1× Alamar Blue solution with phenol red free DMEM culture medium before use.
(§4) 2.5 The cells were washed with PBS (0.1 M, pH=7.4) twice. The Alamar Blue solution was added into wells at 100 μL/well. 100 μL of Alamar Blue solution was added into wells without cells to serve as blank control wells. The 96-well plate was placed in an incubator under 5% CO2 at 37° C. for 3 h. Each concentration of compound was repeated three times during the test.
(§5) The fluorescence value of the cells containing compound is the F(test compound); the fluorescence value of the cells without compound as blank control is the F(blank control); the fluorescent value of the cells from negative control group is F(negative control). The average value and standard deviation of cell viability of three repeated concentrations was calculated by the following formula: […]
(§6) 2.7 The half inhibitory concentration (IC50) of the compound for the cells L-02 and WRL-68 was obtained from the cell viability by Prism Graph software.

hURAT1 = biological target: T1, hURAT1 (Homo sapiens, UniProt Q96S37); assay: Inhibition assay of uric acid transport in HEK293-hURAT1 transfection cell line; format: cell-based; settings: read-out: Inhibitory rates of uric acid transport, ±SD (%)
T1 sequence (Q96S37 1-553): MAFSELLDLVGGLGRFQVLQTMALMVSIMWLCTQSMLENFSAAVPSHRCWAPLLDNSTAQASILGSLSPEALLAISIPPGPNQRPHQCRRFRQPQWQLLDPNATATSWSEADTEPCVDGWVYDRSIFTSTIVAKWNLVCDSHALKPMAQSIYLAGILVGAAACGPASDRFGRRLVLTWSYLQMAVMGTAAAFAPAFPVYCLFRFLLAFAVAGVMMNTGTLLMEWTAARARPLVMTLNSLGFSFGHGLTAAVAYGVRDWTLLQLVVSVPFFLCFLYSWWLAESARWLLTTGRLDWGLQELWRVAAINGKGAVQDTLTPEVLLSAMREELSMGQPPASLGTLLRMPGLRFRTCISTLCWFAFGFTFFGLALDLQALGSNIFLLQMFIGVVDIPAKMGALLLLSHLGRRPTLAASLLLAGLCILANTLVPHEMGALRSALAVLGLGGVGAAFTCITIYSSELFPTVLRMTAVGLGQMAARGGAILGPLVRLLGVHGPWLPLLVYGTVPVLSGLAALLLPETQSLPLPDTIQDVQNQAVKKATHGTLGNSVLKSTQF
Description: 2.1 Construction of a HEK293 stable cell line with high expression of hURAT1: The plasmid pCMV6-hURAT1 was transfected into HEK293 cells, then the stable strain was obtained by the G418 (final concentration 500 μg/mL) resistance screening, which is the high expression of hURAT1 transporter membrane protein.
2.2 To a coated 24-well plate was added 200 μL of 0.1 mg/mL poly-lysine per well and the plate was left overnight. Poly-lysine was removed from wells. The wells were cleaned thoroughly with aseptic water and dried for use.
2.3 To the above coated 24 well plate was added HEK293-hURAT1 stable cells (2×10^5 cells per well). The cells was cultured at 37° C. under 5% CO2 for 3 days.
The solution was fully mixed to give HBSS buffer (pH value: 7.4). The buffer was stored at −20° C.
2.5 The HBSS buffer was warmed to 37° C. in a water bath. Washed cells with HBSS twice, added 160 μL of HBSS and 20 μL test compound per well. The final concentration of tested compound per well is 500 nM. The blank control well contains only 180 μL of HBSS without tested compound. The plate was placed at room temperature for 30 min.
2.6 To each well was added 20 μL of 50 μM ^14C-Uric acid. The plate was placed at room temperature for 20 min.
2.7 The solution in each well was removed and the cells in each well were washed with pre-cooled HBSS buffer. To each well was added 0.2 M NaOH to dissolve the cells. The solution containing cell fragments was collected and the right amount of scintillation liquid was added.
The formula for calculating the inhibitory rate of uric acid transport for compounds was shown as below: […]

hyperuricemia mice = assay: Uric acid excretion test in hyperuricemia mice; format: in vivo, Kunming mice; settings: 15 mg/kg oral
Description: Species: Kingming mice (Clean Level); body weights: 25 to 30 g; ages: 4 to 5 weeks; sex: male. These mice were purchased from Shanghai SLAC Laboratory Animal Co., Ltd. Certificate No.: SCXK (HU) 2012-2002. Animal quality certificate number: 2015000522173.
A certain amount of adenine and yeast extract powder was weighted and a certain amount of double distilled water was added. The mixture was stirred at about 60° C. for 40 min to give a suspension, which the concentration of yeast extract is 0.6 g/mL and the concentration of adenine is 12 mg/mL.
A suspension of 20 mg/mL potassium oxonate was prepared by mixing a certain amount of potassium oxonate with 0.5% CMC-Na solution before use.
Male Kunming mice were randomly divided into four groups: blank control group, model group, compound 74 group, and benzbromarone group. Each group has six mice. All mice fasted 2 to 3 h before use. The model group, benzbromarone group, and compound 74 group were orally given a suspension of yeast extract and adenine prepared above to reach the final dosage of 10 g/kg (body weight) of yeast extract and 200 mg/kg (body weight) of adenine, respectively. The blank control group was only given same volume of normal saline orally. After 2.5 h, all mice in compound 74 group and benzbromarone group were given 10 mL/kg of suspension of compound 74 (1.5 mg/mL) and 10 mL/kg of suspension of benzbromarone (1.5 mg/mL), respectively. The blank control group and model group were orally given same volume of 0.5% CMC-Na solution. All animals were treated in the same way for seven days by using administration methods described above. On the last day, after administration of a suspension of yeast extract and adenine for the model group, compound 74 group, and benzbromarone group, all mice in these three groups were given 12.5 mL/kg of potassium oxonate (20 mg/mL) by i.p. The blank control was only given same volume of 0.5% CMC-Na solution by i.p. After 30 min, compound 74 and benzbromarone were administrated orally to the mice at same dosages as above in compound 74 group and benzbromarone group, respectively. The blank control group and model group were orally given same volume of 0.5% CMC-Na solution.
Collection of urine samples: All mice were placed in metabolic cages with normal diet individually after giving test compounds on the last day. 24 h urine was collected and the urine volume was measured. The urine was centrifugated at 3000 rpm for 20 min and the supernatant was collected.
Detection of the concentration of uric acid of mice urine samples: uric acid concentration in samples was detected by using uric acid assay kit (phosphotungstic acid method) followed the procedures described in the instruction.

[2] = Acute toxicity of single oral dose in SD rats
Description: (§7) Rats were randomly divided into group A1, group B1 and blank control group. Each group has 10 of rats with half male and half female.

[3] = tested on: human normal liver cell line WRL-68; assay: Cytotoxicity test on human normal liver cell line WRL-68 (Alamar Blue); format: cell-based; settings: WRL68, WRL-68 cells, 120 h incubation, cell viability, read-out: half inhibitory concentration (IC50) against WRL-68
Description: as §1, §2, §3, §4, §5, §6

in vivo = settings: both, SD, rat, po
Description: as §7

For `CCc1oc2ccccc2c1C(=O)c1cc(Br)c(O)c(Br)c1` [BBR, (3,5-dibromo-4-hydroxyphenyl)(2-ethyl-benzofuran-3-yl)methanone, reference compound], which IC50 [1] is on record?
Its IC50 is 40.2 µM.

What about the inhibition at 0.5 µM (hURAT1) of the same molecule?
Its inhibition at 0.5 µM is 55.6 ± 1.42%.

What about the “uric acid excretion increased compared with the model group” value (hyperuricemia mice; increase over model group) of the same molecule?
Its value is “about 25.35%”.

And the “Changes of uric acid excretion (compared with model group, %)” value (hyperuricemia mice; model group set to 100%)?
The value was 125.35%.

And the “Uric acid in urine for 24 h, ±SD” value (hyperuricemia mice; seven days, 6 mice)?
The value was 13.40 ± 1.59 mmol.

And the Death rate ([2]; SD rats, single oral dose, 74 at 5.0 g/kg, BBR at 0.14 g/kg, 10 rats per group, 14 days observation)?
The Death rate was 0/10.

And the “death of rats in pre-experiment of acute toxicity” value ([2]; pre-experiment, compound 74 at 5 g/kg (highest dose), benzbromarone at 0.14 g/kg)?
The value was “no death of rats was found”.

What about the IC50 [3] of the same molecule?
The IC50 was 45.5 µM.

What about the MTD at 14 days (in vivo) of the same molecule?
The MTD at 14 days was 140 mg/kg.
